# Counter-ions that a name gives are not always drawn.
# Columns and labels:
# [1] = system: C-terminal agrin fragment (CAF); assay: Analysis of serum CAF levels by western blotting; type: in vivo, C57/BL6 mice
# Experimental: (§1) Adult (P50) C57/BL6 mice from Charles River were used for the experiments. All animal experiments are performed in accordance with international guidelines for proper conduct of animal experiment under jurisdiction of the Swiss law (Permit number ZH-18/2008). For every mouse in the experiment the well-being during the interventions is documented in a score sheet.
# (§2) Example 119, mono-lysine salt, was prepared for the dosing as suspension in 20% DMSO, 80% PBS with a final concentration of 2.5 mg/ml active compound (corresponding to 3.13 mg/ml of the lysine salt). First, compound of Example 119, mono-lysine salt, was dissolved in DMSO at a concentration of 15.7 mg/ml. Then sterile PBS was added to get a final concentration of 3.13 mg/ml and the suspension was thoroughly vortexed. The suspension was kept at room temperature in the dark until used.
# (§3) 5 adult mice were treated with 10 ml/kg of a 3.13 mg/ml suspension of Example 119, mono-lysine salt. This corresponds to a dose of 25 mg/kg active ingredient. As vehicle control 5 mice were treated with 10 ml/kg of 20% DMSO in PBS. Each mouse received three intraperitoneal injections. Between dose 1 and dose 2 there were 8 h, between dose 2 and dose 3 16 h. 5 h after the last injection the mice were euthanatized with CO2.
# Before the first injection the mice were weighted and ˜100 μl of blood was collected from the lateral tail vein. Serum was prepared with centrifugation of blood samples in Microvette 500 Z-Gel tubes (10'000 g, 20° C., 5 min). Supernatant was transferred to an Eppendorf reaction tube and centrifuged again (21'000 g, 20° C., 5 min). Supernatant was transferred to screw top reaction tubes and the serum was stored at −20° C. until analysis. […]
# After staining for CAF the membrane was washed thoroughly and reused for a staining for endogenous mouse antibodies that served as loading control. […] After imaging with a Stella imaging system (Raytest) the intensity of the CAF bands was measured with AIDA picture analysis software (Raytest) and normalized to the loading levels determined from mouse antibody light chains. […]
# [2] = Effect of compound on body weight in mice; type: in vivo, C57/BL6 mice; settings: 25 mg/kg active ingredient, three intraperitoneal injections
# Experimental: as §1
# The mice are housed under optimal hygienic conditions (OHB) with controlled air-conditioning and lighting (temperature: 20-24° C., humidity: 55-65%, day/night cycle: 12 h/12 h, lights on 7 a.m.). Individually ventilated cages of type II, L (530 cm^2 floor space) with standard litter are used. A maximum of 6 mice is kept in each cage. Mice are fed with standard rodent chow (Extrudat, KLIBA NAFAG) ad libitum and have free access to drinking water. Animal colony is managed and maintained at BioSupport, Schlieren.
# as §2, §3
# Before the first injection the mice were weighted and ˜100 μl of blood was collected from the lateral tail vein. Serum was prepared with centrifugation of blood samples in Microvette 500 Z-Gel tubes (10'000 g, 20° C., 5 min). […]
# human neurotrypsin = target: T1, human neurotrypsin (Homo sapiens, UniProt P56730); assay: Determination of IC50 for human neurotrypsin; type: biochemical; settings: human neurotrypsin; method of WO 2006/1103261; read-out: Neurotrypsin IC50
# T1 sequence (P56730 21-875): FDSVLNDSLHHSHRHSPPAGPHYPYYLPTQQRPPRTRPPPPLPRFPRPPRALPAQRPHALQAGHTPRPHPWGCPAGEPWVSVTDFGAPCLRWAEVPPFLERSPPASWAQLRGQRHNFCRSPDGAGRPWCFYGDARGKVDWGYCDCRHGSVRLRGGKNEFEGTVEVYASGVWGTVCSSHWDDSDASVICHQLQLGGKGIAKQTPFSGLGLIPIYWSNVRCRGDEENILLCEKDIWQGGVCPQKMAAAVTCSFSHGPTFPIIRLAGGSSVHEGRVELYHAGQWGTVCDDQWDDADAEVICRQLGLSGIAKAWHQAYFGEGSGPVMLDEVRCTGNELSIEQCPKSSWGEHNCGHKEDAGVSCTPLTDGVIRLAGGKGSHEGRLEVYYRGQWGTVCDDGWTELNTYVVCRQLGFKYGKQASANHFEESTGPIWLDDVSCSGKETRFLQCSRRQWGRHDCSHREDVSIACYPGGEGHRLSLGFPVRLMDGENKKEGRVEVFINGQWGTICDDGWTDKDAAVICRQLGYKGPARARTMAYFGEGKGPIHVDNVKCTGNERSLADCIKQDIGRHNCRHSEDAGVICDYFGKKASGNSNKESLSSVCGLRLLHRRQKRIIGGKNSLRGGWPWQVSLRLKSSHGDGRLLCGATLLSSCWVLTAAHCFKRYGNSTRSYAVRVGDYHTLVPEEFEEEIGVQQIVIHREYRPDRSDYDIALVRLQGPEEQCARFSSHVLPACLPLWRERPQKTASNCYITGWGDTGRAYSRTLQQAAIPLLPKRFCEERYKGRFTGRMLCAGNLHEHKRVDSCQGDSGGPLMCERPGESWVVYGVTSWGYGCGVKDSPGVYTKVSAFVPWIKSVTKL
# Experimental: Assessment of the potency of compounds of examples 1-311 in inhibiting the enzymatic activity of human neurotrypsin was performed according to the method described in patent application WO 2006/1103261
Compound,IC50 (human neurotrypsin) [µM],other results
"O=C(Nc1ccc(Cl)cc1)c1ccc(NC(=O)c2ccc(-c3nc4cc(Cl)c(Cl)cc4[nH]3)cc2)c(C(=O)O)c1 [Example 119, mono-lysine salt]",,"CAF levels Average (AU) ([1]; pooled mouse serum, western blot, post-treatment, 25 mg/kg i.p. x3, normalized to loading control, KO background subtracted): 0.38 AU; CAF levels Average (% of vehicle) ([1]; pooled mouse serum, western blot, post-treatment, 25 mg/kg i.p. x3, normalized to the vehicle level): 56.15 % of vehicle; CAF levels ([1]; serum, pooled samples, mice, 25 mg/kg active ingredient, three intraperitoneal injections, 5 h after last injection, mean ± standard deviation): 56.2%±29.0 % of vehicle control; increase in weight loss compared to the vehicle control ([2]; adult mice): does not produce any increase in weight loss compared to the vehicle control; Weight loss ([2]; adult mice, post-treatment/pre-treatment weight): < 10%; Average weight loss (% of T = 0 weigth) ([2]; mice, weighed before first injection and 5 h after last, n=5): 5.52 % of T = 0 weigth"
O=C(Nc1ccc(Cl)cc1)Nc1ccc(C(=O)O)c(NC(=O)c2sc3ccccc3c2Cl)c1 [Example 276],6.3,
O=C(Nc1cc(NC(=O)c2sc3ccccc3c2Cl)ccc1C(=O)O)c1ccc(Cl)cc1 [Example 277],3.5,
O=C(O)c1ccc(NS(=O)(=O)c2ccc(Cl)cc2)cc1NC(=O)c1sc2ccccc2c1Cl [Example 278],19.4,
O=C(O)c1ccc(NC(=O)N2CCC(c3ccccc3)CC2)cc1NC(=O)c1sc2ccccc2c1Cl [Example 279],5.4,
"O=C(O)c1ccc(NCc2ccc(Cl)cc2)cc1NC(=O)c1sc2ccccc2c1Cl [Example 280, 2-(3-Chlorobenzo[b]thiophene-2-carboxamido)-4-(4-chlorobenzylamino)-benzoic acid]",5,
O=C(O)c1ccc(N2CC(c3ccc(Cl)cc3)CC2=O)cc1NC(=O)c1sc2ccccc2c1Cl (stereo not drawn) [Example 282],11.3,
O=C(Nc1cc(N2CC(c3ccc(Cl)cc3)CC2=O)ccc1C(=O)O)c1ccc(-c2ccc(Cl)cc2)s1 (stereo not drawn) [Example 283],3.4,
O=C(O)c1ccc(N2CC(c3ccc(Cl)cc3)CCC2=O)cc1NC(=O)c1sc2ccccc2c1Cl (stereo not drawn) [Example 286],10.4,
O=C(O)c1cc(N2CC(c3ccc(Cl)cc3)CC2=O)ccc1NC(=O)c1sc2ccccc2c1Cl (stereo not drawn) [Example 287],4.3,
"O=C(O)c1ccc(Nc2ccc(Cl)cc2)cc1NC(=O)c1sc2ccccc2c1Cl [Example 288, 2-(3-Chlorobenzo[b]thiophene-2-carboxamido)-4-(4-chlorophenyl-amino)benzoic acid]",5.1,
CC(Nc1ccc(C(=O)O)c(NC(=O)c2sc3ccccc3c2Cl)c1)c1ccc(Cl)cc1 (stereo not drawn) [Example 290],4.1,
O=C(O)c1ccc(NC2CCCc3ccccc32)cc1NC(=O)c1sc2ccccc2c1Cl (stereo not drawn) [Example 291],4,
O=C(Nc1ccc(Sc2ccc(Cl)cc2)cc1C(=O)O)c1ccc(-c2ccc(Cl)cc2)s1 [Example 293],8.7,
"N-(5-(5-Chloro-1,3-thiazol-2-ylcarbamoyl)-2-(2H-tetrazol-5-yl)phenyl)-5-phenyl-thiophene-2-carboxamide [Example 228]",6.6,

# Now from value to compound, other results behind:
IC50 (human neurotrypsin) [µM],Compound,other results
8.7,O=C(O)c1ccc(CN2CC(c3ccc(Cl)cc3)OC2=O)cc1NC(=O)c1sc2ccccc2c1Cl (stereo not drawn) [Example 301],
4.4,"O=C(O)COc1cc(C(=O)O)c(NC(=O)c2ccc(-c3nc4cc(Cl)c(Cl)cc4n3CC(=O)O)cc2)cc1C(=O)Nc1ccc(Cl)cc1 [Example 302, 5-(Carboxymethoxy)-2-(4-(1-(carboxymethyl)-5,6-dichloro-1H-benzo[d]imidazol-2-yl)benzamido)-4-(4-chlorophenylcarbamoyl)benzoic acid]",
5.5,O=C(Nc1ccc(Cl)cc1)c1cc(NC(=O)c2sc3ccccc3c2Cl)c(C(=O)O)cc1O [Example 303],
2.5,O=C(O)COc1cc(C(=O)O)c(NC(=O)c2sc3ccccc3c2Cl)cc1C(=O)Nc1ccc(Cl)cc1 [Example 304],
1.2,COC(=O)c1cc(OCC(=O)O)c(C(=O)Nc2ccc(Cl)cc2)cc1NC(=O)c1ccc(-c2nc3cc(Cl)c(Cl)cc3n2C)cc1 [Example 305],
0.5,Cn1c(-c2ccc(C(=O)Nc3cc(C(=O)Nc4ccc(Cl)cc4)c(OCC(=O)O)cc3C(=O)O)cc2)nc2cc(Cl)c(Cl)cc21 [Example 306],
0.5,"O=C(COc1ccc(NC(=O)c2ccc(-c3nc4cc(Cl)c(Cl)cc4[nH]3)cc2)c(C(=O)O)c1)Nc1ccc(Cl)cc1 [Example 311, 5-(4-Chlorophenylcarbamoylmethoxy)-2-(4-(5,6-dichloro-1H-benzo[d]imidazol-2-yl)benzamido)benzoic acid]",

# — US20130261130A1, “NEUROTRYPSIN INHIBITORS” (priority 2010, published 2013)
